Experimental data from ChEMBL document CHEMBL2203021, “The synthesis and biological evaluation of novel Danshensu-cysteine analog conjugates as cardiovascular-protective agents” (2012).
Activity calls are given as the source filed them. The rule behind the calls is not given here.

Columns and labels:
HUVEC [1] = assay: Inhibition of H2O2-induced cytotoxicity in HUVEC cells assessed as cell viability at 5 to 100 umol/L incubated 4 hrs prior to H2O2 challenge measured after 12 hrs by MTT assay; type: functional, cell-based; details: Homo sapiens
HUVEC [2] = assay: Antioxidant activity in HUVEC cells assessed as […] in H2O2-induced GSH activity at 50 umol/L incubated 4 hrs prior to H2O2 challenge measured after 12 hrs; type: functional, cell-based; details: Homo sapiens
HUVEC [3] = assay: Inhibition of H2O2-induced cytotoxicity in HUVEC cells assessed as LDH release at 50 umol/L incubated 4 hrs prior to H2O2 challenge measured after 12 hrs by LDH assay; type: functional, cell-based; details: Homo sapiens
HUVEC [4] = assay: Antioxidant activity against H2O2-induced lipid accumulation in HUVEC cells assessed as reduction in MDA level at 50 umol/L incubated 4 hrs prior to H2O2 challenge measured after 12 hrs; type: functional, cell-based; details: Homo sapiens
HUVEC [5] = assay: Inhibition of H2O2-induced cytotoxicity in HUVEC cells assessed as LDH release at 5 mmol/L incubated 4 hrs prior to H2O2 challenge measured after 12 hrs by LDH assay; type: functional, cell-based; details: Homo sapiens
HUVEC [6] = assay: Inhibition of H2O2-induced cytotoxicity in HUVEC cells assessed as cell viability at 5 mmol/L incubated 4 hrs prior to H2O2 challenge measured after 12 hrs by MTT assay; type: functional, cell-based; details: Homo sapiens
HUVEC [7] = assay: Antioxidant activity against H2O2-induced lipid accumulation in HUVEC cells assessed as reduction in MDA level at 5 mmol/L incubated 4 hrs prior to H2O2 challenge measured after 12 hrs; type: functional, cell-based; details: Homo sapiens
HUVEC [8] = assay: Antioxidant activity in HUVEC cells assessed as […] in H2O2-induced GSH activity at 5 mmol/L incubated 4 hrs prior to H2O2 challenge measured after 12 hrs; type: functional, cell-based; details: Homo sapiens
HUVEC [9] = assay: Antiapoptotic activity against H2O2-induced HUVEC cells assessed as reduction in total apoptotic cells at 100 umol/L after 4 hrs by annexin V-FITC/propidium iodide staining-based flow cytometry; type: functional, Homo sapiens; set-up: scale not given: the % may be the effect or the level left
HUVEC [10] = assay: Antiapoptotic activity against H2O2-induced HUVEC cells assessed as reduction in total apoptotic cells at 5 umol/L after 4 hrs by annexin V-FITC/propidium iodide staining-based flow cytometry; type: functional, Homo sapiens; set-up: scale not given: the % may be the effect or the level left
HUVEC [11] = assay: Antiapoptotic activity in HUVEC cells assessed as inhibition of H2O2-induced mitochondrial membrane potential reduction by JC-1 staining; type: functional, cell-based; details: Homo sapiens
HUVEC [12] = assay: Antiapoptotic activity against H2O2-induced HUVEC cells assessed as increase in Bcl-2 level by Western blotting relative to control; type: functional, cell-based; details: Homo sapiens
HUVEC [13] = assay: Antiapoptotic activity in HUVEC cells assessed as reduction in H2O2-induced Bax level by Western blotting relative to control; type: functional, cell-based; details: Homo sapiens
HUVEC [14] = assay: Antiapoptotic activity in HUVEC cells assessed as reduction in H2O2-induced p53 level by Western blotting relative to control; type: functional, cell-based; details: Homo sapiens
HUVEC [15] = assay: Antioxidant activity against in HUVEC cells assessed as […] in H2O2-induced GSH activity incubated 4 hrs prior to H2O2 challenge measured after 12 hrs; type: functional, cell-based; details: Homo sapiens
HUVEC [16] = assay: Antiapoptotic activity in HUVEC cells assessed as reduction in H2O2-induced nuclear condensation by hoechst staining; type: functional, cell-based; details: Homo sapiens
HUVEC [17] = assay: Antiapoptotic activity against H2O2-induced HUVEC cells assessed as reduction in total apoptotic cells at 50 umol/L after 4 hrs by annexin V-FITC/propidium iodide staining-based flow cytometry; type: functional, Homo sapiens; set-up: scale not given: the % may be the effect or the level left
HUVEC [18] = assay: Antioxidant activity against H2O2-induced lipid accumulation in HUVEC cells assessed as reduction in MDA level incubated 4 hrs prior to H2O2 challenge measured after 12 hrs; type: functional, cell-based; details: Homo sapiens
HUVEC [19] = assay: Inhibition of H2O2-induced cytotoxicity in HUVEC cells assessed as LDH release incubated 4 hrs prior to H2O2 challenge measured after 12 hrs by LDH assay; type: functional, cell-based; details: Homo sapiens
HUVEC [20] = assay: Antiapoptotic activity in HUVEC cells assessed as […] in H2O2-induced pro-caspase-9 level by Western blotting; type: functional, cell-based; details: Homo sapiens
HUVEC [21] = assay: Antiapoptotic activity against H2O2-induced HUVEC cells assessed as reduction in late apoptotic cells after 4 hrs by annexin V-FITC/propidium iodide staining-based flow cytometry; type: functional, cell-based; details: Homo sapiens
HUVEC [22] = assay: Antiapoptotic activity in HUVEC cells assessed as reduction in H2O2-induced PARP level by Western blotting relative to control; type: functional, cell-based; details: Homo sapiens
HUVEC [23] = assay: Antiapoptotic activity in HUVEC cells assessed as reduction in H2O2-induced nuclei-shrunk by Hoechst staining; type: functional, cell-based; details: Homo sapiens
HUVEC [24] = assay: Antiapoptotic activity in HUVEC cells assessed as […] in H2O2-induced pro-caspase-3 level by Western blotting; type: functional, cell-based; details: Homo sapiens

COC(=O)[C@H](CSCc1ccccc1)NC(=O)CCc1ccc2c(c1)OCO2 was tested, and the inhibition (HUVEC [1]) was “inactive”.
In the case of COC(=O)[C@H](CSCc1ccccc1)NC(=O)CCc1ccc(OC(C)=O)c(OC(C)=O)c1, the Activity (HUVEC [2]) is reported as “Active”, the inhibition (HUVEC [3]) is reported as “Active” and the Activity (HUVEC [4]) is reported as “Active”. For the same molecule, the inhibition (HUVEC [1]) was “Active”.
COC(=O)[C@H](CSCc1ccccc1)NC(=O)C(Cc1ccc(OC(C)=O)c(OC(C)=O)c1)OC(C)=O (stereo partly drawn) was tested, and the Activity (HUVEC [2]) was “Active”, the inhibition (HUVEC [3]) was “Active” and the Activity (HUVEC [4]) was “Active”. For the same molecule, the inhibition (HUVEC [1]) was “Active”.
In the case of COC(=O)[C@@H](N)CSC(=O)CCc1ccc2c(c1)OCO2, the Activity (HUVEC [1]) is reported as “inactive”.
With COC(=O)[C@@H](N)CSC(=O)C(Cc1ccc(OC(C)=O)c(OC(C)=O)c1)OC(C)=O (stereo partly drawn) the inhibition (HUVEC [1]) was “inactive”.
For CC(=O)N[C@@H](CS)C(=O)O, the inhibition (HUVEC [5]) was “Active”, the inhibition (HUVEC [6]) was “Active” and the Activity (HUVEC [7]) was “Active”. The Activity (HUVEC [8]) was “Active”.
For COC(=O)[C@@H](N)CSC(=O)CCc1ccc(OC(C)=O)c(OC(C)=O)c1, the Activity (HUVEC [1]) was “inactive”.
In the case of COC(=O)[C@H](CSC(=O)/C(=C/c1ccc(OC(C)=O)c(OC(C)=O)c1)OC(C)=O)NC(=O)OC(C)(C)C, the Activity (HUVEC [2]) is reported as “Active”, the inhibition (HUVEC [3]) is reported as “Active” and the Activity (HUVEC [4]) is reported as “Active”. For the same molecule, the inhibition (HUVEC [1]) was “Active”.
In the case of COC(=O)[C@H](CSC(=O)CCc1ccc(OC(C)=O)c(OC(C)=O)c1)NC(=O)OC(C)(C)C, the Activity (HUVEC [1]) is reported as “inactive”.
With COC(=O)[C@@H](N)CSC(=O)/C(=C/c1ccc2c(c1)OCO2)OC(C)=O the inhibition (HUVEC [1]) was “Active”.
In the case of COC(=O)[C@H](CSC(=O)C(Cc1ccc2c(c1)OCO2)OC(C)=O)NC(=O)OC(C)(C)C (stereo partly drawn), the inhibition (HUVEC [1]) is reported as “inactive”.
For COC(=O)[C@H](CSC(=O)/C(=C/c1ccc2c(c1)OCO2)OC(C)=O)NC(=O)OC(C)(C)C, the Activity (HUVEC [2]) was “Active”, the inhibition (HUVEC [3]) was “Active” and the Activity (HUVEC [4]) was “Active”. For the same molecule, the inhibition (HUVEC [1]) was “Active”.
In the case of COC(=O)[C@@H](N)CSC(=O)/C(=C/c1ccc(OC(C)=O)c(OC(C)=O)c1)OC(C)=O, the inhibition (HUVEC [1]) is reported as “Active”.
COC(=O)[C@H](CSCc1ccccc1)NC(=O)/C(=C/c1ccc(OC(C)=O)c(OC(C)=O)c1)OC(C)=O was tested, and the Activity (HUVEC [2]) was “Active”, the Activity (HUVEC [9]) was 5.4% and the Activity (HUVEC [10]) was 20.1%. The Activity (HUVEC [11]) was “Dose-dependent effect”, the Activity (HUVEC [12]) was “Dose-dependent effect” and the Activity (HUVEC [13]) was “Dose-dependent effect”. The Activity (HUVEC [14]) was “Dose-dependent effect”, the inhibition (HUVEC [3]) was “Active” and the Activity (HUVEC [4]) was “Active”. For the same molecule, the Activity (HUVEC [15]) was “Dose-dependent effect”, the Activity (HUVEC [16]) was “Dose-dependent effect” and the Activity (HUVEC [17]) was 9%. For the same molecule, the Activity (HUVEC [18]) was “Dose-dependent effect”, the inhibition (HUVEC [19]) was “Dose-dependent effect” and the Activity (HUVEC [20]) was “Dose-dependent effect”. For the same molecule, the inhibition (HUVEC [1]) was “Active”, the Activity (HUVEC [21]) was “Dose-dependent effect” and the Activity (HUVEC [22]) was “Dose-dependent effect”. The Activity (HUVEC [23]) was “Dose-dependent effect” and the Activity (HUVEC [24]) was “Dose-dependent effect”.
COC(=O)[C@H](CSCc1ccccc1)NC(=O)/C(=C/c1ccc2c(c1)OCO2)OC(C)=O was tested, and the inhibition (HUVEC [1]) was “inactive”.
With COC(=O)[C@H](CSC(=O)CCc1ccc2c(c1)OCO2)NC(=O)OC(C)(C)C the Activity (HUVEC [1]) was “inactive”.
In the case of COC(=O)[C@@H](N)CSC(=O)C(Cc1ccc2c(c1)OCO2)OC(C)=O (stereo partly drawn), the inhibition (HUVEC [1]) is reported as “Active”.
In the case of COC(=O)[C@H](CSC(=O)C(Cc1ccc(OC(C)=O)c(OC(C)=O)c1)OC(C)=O)NC(=O)OC(C)(C)C (stereo partly drawn), the inhibition (HUVEC [1]) is reported as “inactive”.
For COC(=O)[C@H](CSCc1ccccc1)NC(=O)C(Cc1ccc2c(c1)OCO2)OC(C)=O (stereo partly drawn), the inhibition (HUVEC [1]) was “inactive”.
